The text below walks through data of publication PMC13539321 (Journal of Advanced Research, 2025).

In data set [1] the test system is B16F10 cells. Description: Cytotoxicity assay. Format: cell-based. To be noted: 200 μM, 72 h.
The test system of a further data set is A375 cells. Kind of data set: Cytotoxicity assay. The format is cell-based. To be noted: 72 h.
Data set [2] deals with B16F10 cells. Description: Intracellular melanogenesis inhibition assay, B16F10. The format is cell-based. To be noted: melanotan II 100 nM, 72 h; for order of inhibitory effectiveness (macroscopic colour): 100 μM.
The subject of the next data set is 3D melanin skin model. Kind of data set: 3D human skin model assay. To be noted: 100 µM, six doses, UVB 50 mJ/cm^2 for seven days, n = 6. Format: cell-based.
The target of data set [3] is Mushroom TYR (EC 1.14.18.1) (Agaricus bisporus, UniProt C7FF04). Kind of data set: biochemical. Particulars: IC50 value ± SD.
Mushroom TYR (EC 1.14.18.1), sequence (C7FF04 1-392 limits assumed): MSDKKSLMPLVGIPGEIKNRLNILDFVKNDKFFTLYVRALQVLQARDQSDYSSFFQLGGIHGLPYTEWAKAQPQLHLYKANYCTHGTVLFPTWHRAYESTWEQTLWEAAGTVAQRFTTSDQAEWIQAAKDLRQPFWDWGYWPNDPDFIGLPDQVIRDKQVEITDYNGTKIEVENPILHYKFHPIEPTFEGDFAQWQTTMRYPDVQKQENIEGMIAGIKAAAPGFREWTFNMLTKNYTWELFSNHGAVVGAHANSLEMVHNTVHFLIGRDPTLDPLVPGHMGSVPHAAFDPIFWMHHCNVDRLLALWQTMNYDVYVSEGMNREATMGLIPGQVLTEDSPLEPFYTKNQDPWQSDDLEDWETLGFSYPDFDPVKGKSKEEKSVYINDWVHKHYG
The target of a further data set is mushroom TYR (Agaricus bisporus, UniProt C7FF04). Description: biochemical. Format: binding.
mushroom TYR, sequence (C7FF04 1-392 limits assumed): as above
Where [4] appears, read: L-dopa, substrate L-dopa (diphenolase), n = 3, screening of de novo generated compounds (Table 1).
Setting [5] is: L-tyrosine, substrate L-tyrosine (monophenolase), n = 3, screening of de novo generated compounds (Table 1).

`O=c1cc(CO)occ1O` [kojic acid, reference compound]: the cytotoxicity entry in the data set with B16F10 cells [1] and in the data set with A375 cells (200 μM) was “no cytotoxicity” each time. For the same molecule, the “order of inhibitory effectiveness (macroscopic colour)” value with B16F10 cells [2] is “compound V-24 > β-arbutin > kojic acid ≈ compound V”. In the data set with 3D melanin skin model, this molecule showed a L value of 70.98 ± 0.68.
Take `COc1ccc(CN2CCN(C(=O)CCc3cccc(O)c3)CC2)cc1` [Compound V-13, 3-(3-hydroxyphenyl)-1-(4-(4-methoxybenzyl)piperazin-1-yl)propan-1-one]: the IC50 in data set [3] (L-dopa) is 103 ± 5.6 µM; in data set [3] (L-tyrosine) it was 132 ± 5.4 µM.
For `O=C(/C=C/c1ccccc1)N1CCN(c2cccc(O)c2)CC1` [XII, (E)-1-(4-(3-hydroxyphenyl)piperazin-1-yl)-3-phenylprop-2-en-1-one], the 50% inhibitory concentration (IC50) in data set [3] (setting [4]) was determined as 199 ± 22.7 µM; in data set [3] (setting [5]), 35.9 ± 1.2 µM.
For `O=C(Oc1ccc(N2CCNCC2)cc1)c1cnc2ccccc2c1` [XVI, 4-(piperazin-1-yl)phenyl quinoline-3-carboxylate], the results for the IC50 in data set [3] (setting [4]) and in data set [3] (setting [5]) were 138 ± 5.1 µM and 16 ± 1.6 µM, respectively.
As to `O=C(/C=C/c1cccc(O)c1)N1CCN(Cc2ccc(F)cc2)CC1` [Compound V-5, (E)-1-(4-(4-fluorobenzyl)piperazin-1-yl)-3-(3-hydroxyphenyl)prop-2-en-1-one], the IC50 is greater than 200 µM in data set [3] (L-dopa) and 148 ± 25.4 µM in data set [3] (L-tyrosine).
As to `COc1ccc(CN2CCN(C(=O)CCc3ccc(O)cc3O)CC2)cc1` [Compound V-25, 3-(2,4-dihydroxyphenyl)-1-(4-(4-methoxybenzyl)piperazin-1-yl)propan-1-one], the IC50 in data set [3] (L-dopa) was determined as 0.147 ± 0.013 µM; in data set [3] (L-tyrosine), 0.165 ± 0.008 µM.
On to `O=C(CCc1cccc(O)c1)N1CCN(Cc2ccc(F)cc2)CC1` [Compound V, 1-(4-(4-fluorobenzyl)piperazin-1-yl)-3-(3-hydroxyphenyl)propan-1-one], for which the concentration for half-maximal inhibition (IC50) came out at 41.8 ± 3 µM in data set [3] (L-dopa), 18.5 ± 2.4 µM in data set [3] (setting [4]), 11.9 ± 0.5 µM in data set [3] (L-tyrosine) and 9.6 ± 1.1 µM in data set [3] (setting [5]). At mushroom TYR, this molecule showed a Kd of 24.2 ± 20.3 µM. The cytotoxicity entry in the data set with B16F10 cells [1] is “no cytotoxicity”; in the data set on A375 cells (100 μM), “no cytotoxicity”; in the data set on A375 cells (200 μM), “weak cytotoxicity”. Also, in the data set on B16F10 cells [2], the “order of inhibitory effectiveness (macroscopic colour)” value is recorded as “compound V-24 > β-arbutin > kojic acid ≈ compound V”. For the same molecule, the “inhibitory effect on melanin synthesis” value in the data set with B16F10 cells [2] (various concentrations) is “comparable to that of kojic acid”.
As to `O=C(CCc1cc(O)ccc1O)N1CCN(Cc2ccc(F)cc2)CC1` [Compound V-21, 3-(2,5-dihydroxyphenyl)-1-(4-(4-fluorobenzyl)piperazin-1-yl)propan-1-one], the IC50 in data set [3] (L-dopa) amounted to 21 ± 0.82 µM; in data set [3] (L-tyrosine) it was 8.2 ± 0.4 µM.
For the molecule `O=C(CCc1cccc(O)c1)N1CCCN(Cc2ccc(F)cc2)CC1` [Compound V-6, 1-(4-(4-fluorobenzyl)-1,4-diazepan-1-yl)-3-(3-hydroxyphenyl)propan-1-one], the IC50 in data set [3] (L-dopa) stood at 296 ± 7.9 µM; in data set [3] (L-tyrosine) it was 88.9 ± 2.9 µM.
For `N#Cc1ccc(CN2CCN(C(=O)/C=C/c3ccc(O)cc3O)CC2)cc1` [Compound V-34, (E)-4-((4-(3-(2,4-dihydroxyphenyl)acryloyl)piperazin-1-yl)methyl)benzonitrile], in that order: 0.032 ± 0.004 µM and 0.041 ± 0.005 µM.
With `O=C(CCc1cccc(O)c1)N1CCN(Cc2ccco2)CC1` [Compound V-17, 1-(4-(furan-2-ylmethyl)piperazin-1-yl)-3-(3-hydroxyphenyl)propan-1-one], the IC50 was greater than 800 µM in data set [3] (L-dopa) and greater than 600 µM in data set [3] (L-tyrosine).
As for `O=C(NCCc1cccc(O)c1)c1cccc2ncccc12` [VIII, N-(3-hydroxyphenethyl)quinoline-5-carboxamide], the IC50 in data set [3] (setting [4]) and in data set [3] (setting [5]) was greater than 800 µM each time.
Consider `O=C(CCc1cccc(O)c1)N1CCN(Cc2cccc(F)c2)CC1` [Compound V-2, 1-(4-(3-fluorobenzyl)piperazin-1-yl)-3-(3-hydroxyphenyl)propan-1-one], for which the IC50 in data set [3] (L-dopa) was greater than 400 µM; in data set [3] (L-tyrosine) it was 295 ± 24.2 µM.
